“And” between values parts separate entries of the source, which are not always exact repeats. Equal values may be shown once. Read-outs that look alike come from different tables or passages of the source.
Key:
[1] = target: T1, SSAO (Rattus norvegicus, UniProt O08590); test: serum SSAO activity in vivo in rats after sc treatment; details: for Specific activity (pmol/mg/h) Mean / Inhibition (%) / Specific activity / inhibition at 10 µmol/kg / inhibition at 100 µmol/kg: rat serum SSAO; for Specific activity (pmol/mg/h) Mean / Specific activity: control mean 3.373; for inhibition at 10 µmol/kg / inhibition at 100 µmol/kg: rat, sc
T1 construct: from tissue; host or cells: rat serum (blood supernatant) of treated animals
T1 sequence (O08590 28-763 limits assumed): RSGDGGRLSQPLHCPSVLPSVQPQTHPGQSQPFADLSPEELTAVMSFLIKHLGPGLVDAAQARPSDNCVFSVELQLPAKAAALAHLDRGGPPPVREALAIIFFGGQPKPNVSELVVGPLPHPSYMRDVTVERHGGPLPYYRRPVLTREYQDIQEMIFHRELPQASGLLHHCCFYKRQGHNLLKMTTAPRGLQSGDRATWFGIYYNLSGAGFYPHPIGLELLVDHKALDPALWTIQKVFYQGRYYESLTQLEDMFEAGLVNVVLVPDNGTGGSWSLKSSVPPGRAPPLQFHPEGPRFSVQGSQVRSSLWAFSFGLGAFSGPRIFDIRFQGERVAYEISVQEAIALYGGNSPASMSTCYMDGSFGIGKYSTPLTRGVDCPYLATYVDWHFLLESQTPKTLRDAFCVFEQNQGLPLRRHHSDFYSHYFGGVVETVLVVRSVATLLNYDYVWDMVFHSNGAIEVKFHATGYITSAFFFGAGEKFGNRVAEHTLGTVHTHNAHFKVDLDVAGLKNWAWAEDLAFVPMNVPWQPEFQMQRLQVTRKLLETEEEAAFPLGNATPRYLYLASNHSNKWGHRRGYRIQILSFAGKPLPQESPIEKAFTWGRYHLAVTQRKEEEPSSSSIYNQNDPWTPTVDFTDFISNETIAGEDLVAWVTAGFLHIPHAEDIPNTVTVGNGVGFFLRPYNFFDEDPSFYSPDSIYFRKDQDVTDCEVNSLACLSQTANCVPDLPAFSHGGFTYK
Experimental: Rats were treated sc with 0.1 or 0.01 M dihydralazine solution (0.1 ml/100 g) once daily for 1-5 days. On the appropriate day, 2 hours after the treatment the rats were decapitated and their blood was collected without anticoagulant in plastic centrifuge tubes. Blood samples were centrifuged at a low frequency (800 rpm/min) and the supernatant was used for the determination of SSAO activity applying ^14C-benzylamine substrate.
SSAO inhibition expressed in pmol/mg protein/hour units and in % values (mean ± S.D.) in the two treated groups is shown in table 2 and 3.

[2] = tested on: macular edema; test: macular edema of type 2 diabetic patients, retinal thickness by optical coherency tomography (OCT); assay type: in vivo, human; design: OCT CPT (center point thickness): unit not given beside the values; details: for OCT CPT (center point thickness) / OCT CST (central subfield thickness): oral 14.5 mg dihydralazine sulphate twice daily
Experimental: The effect of orally administered low dose dihydralazine on macular edema and serum SSAO activity was studied in type 2 diabetic patients in an early stage of macular edema formation.
After giving their informed consent, patients participating in the study were treated for 56 days taking ½ tablet twice daily of a pharmaceutical composition containing 28.9 mg dihydralazine sulphate (i.e. the ½ tablet contained 14.5 mg dihydralazine sulphate).
To measure the efficacy and monitor the safety of the treatment, the following examinations were carried out before starting the treatment and at the 1., 7., 14., 28. and 56. day of the treatment: • 1. ocular examinations: visual acuity (ETDRS chart), slit-lamp examination, measurement of intraocular pressure with applanation tonometry, fundus biomicroscopy with pupil dilation, digital fundus photography. The grade of macular edema was determined via measuring retinal thickness with optical coherency tomography (OCT). • 2. internal medicine examinations: anamnesis, physical examinations, blood pressure, pulse, urine examination. • 3. laboratory examinations: blood glucose, HbA1c, liver function, kidney function, microalbuminuria, metabolic panel of the blood , lipids, CRP.
In the table the following abbreviations were used: • BMI: body mass index - weight (kg) / height (m^2) • RRsyst: blood pressure (systolic) (Hgmm) • RRdiast: blood pressure (diastolic) (Hgmm) • OCT CST (central subfield thickness): the average thickness of the central 1-mm area of the macula • OCT CPT (center point thickness): the thickness of the center point of the retina; normally that is the thinnest point of the macula Table 4.

[3] = sc 10 µmol/kg (1.9 mg/kg) once daily, 24 h, individual animals
[4] = sc 10 µmol/kg (1.9 mg/kg) once daily, 48 h, individual animals
[5] = sc 10 µmol/kg (1.9 mg/kg) once daily, 72 h, individual animals
[6] = sc 10 µmol/kg (1.9 mg/kg) once daily, 96 h, individual animals
[7] = sc 10 µmol/kg (1.9 mg/kg) once daily, 120 h, individual animals
[8] = sc 100 µmol/kg (19 mg/kg) once daily, 24 h, individual animals
[9] = sc 100 µmol/kg (19 mg/kg) once daily, 48 h, individual animals
[10] = sc 100 µmol/kg (19 mg/kg) once daily, 72 h, individual animals
[11] = sc 100 µmol/kg (19 mg/kg) once daily, 96 h, individual animals
[12] = sc 100 µmol/kg (19 mg/kg) once daily, 120 h, individual animals

Specific activity (pmol/mg/h) Mean ([1]; sc 10 µmol/kg (1.9 mg/kg) once daily, 24 h, group mean): 1.580 pmol/mg/h
Inhibition (%) [1, 3]: 37% and 57%
Specific activity (pmol/mg/h) Mean ([1]; sc 10 µmol/kg (1.9 mg/kg) once daily, 48 h, group mean): 1.595 pmol/mg/h
Inhibition (%) [1, 4]: 52% and 55%
Specific activity (pmol/mg/h) Mean ([1]; sc 10 µmol/kg (1.9 mg/kg) once daily, 72 h, group mean): 1.244 pmol/mg/h
Inhibition (%) [1, 5]: 69%
Specific activity (pmol/mg/h) Mean ([1]; sc 10 µmol/kg (1.9 mg/kg) once daily, 96 h, group mean): 1.344 pmol/mg/h
Inhibition (%) [1, 6]: 71% and 42%
Specific activity (pmol/mg/h) Mean ([1]; sc 10 µmol/kg (1.9 mg/kg) once daily, 120 h, group mean): 1.425 pmol/mg/h
Inhibition (%) [1, 7]: 77% and 14% and 82%
Specific activity (pmol/mg/h) Mean ([1]; sc 100 µmol/kg (19 mg/kg) once daily, 24 h, group mean): 1.094 pmol/mg/h
Inhibition (%) [1, 8]: 69%
Specific activity (pmol/mg/h) Mean ([1]; sc 100 µmol/kg (19 mg/kg) once daily, 48 h, group mean): 1.481 pmol/mg/h
Inhibition (%) [1, 9]: 47% and 61%
Specific activity (pmol/mg/h) Mean ([1]; sc 100 µmol/kg (19 mg/kg) once daily, 72 h, group mean): 1.177 pmol/mg/h
Inhibition (%) [1, 10]: 66%
Specific activity (pmol/mg/h) Mean ([1]; sc 100 µmol/kg (19 mg/kg) once daily, 96 h, group mean): 0.859 pmol/mg/h
Inhibition (%) [1, 11]: 73%
Specific activity (pmol/mg/h) Mean ([1]; sc 100 µmol/kg (19 mg/kg) once daily, 120 h, group mean): 0.730 pmol/mg/h
Inhibition (%) [1, 12]: 62% and 90% and 83%
inhibition at 10 µmol/kg ([1]; sc 10 µmol/kg (1.9 mg/kg) once daily, 24 h, group mean, read-out: Inhibition (%) Mean): 53%
inhibition at 10 µmol/kg ([1]; sc 10 µmol/kg (1.9 mg/kg) once daily, 48 h, group mean, read-out: Inhibition (%) Mean): 53%
inhibition at 10 µmol/kg ([1]; sc 10 µmol/kg (1.9 mg/kg) once daily, 48 h, individual animals, read-out: Inhibition (%)): 51%
inhibition at 10 µmol/kg ([1]; sc 10 µmol/kg (1.9 mg/kg) once daily, 72 h, group mean, read-out: Inhibition (%) Mean): 63%
inhibition at 10 µmol/kg ([1]; sc 10 µmol/kg (1.9 mg/kg) once daily, 72 h, individual animals, read-out: Inhibition (%)): 63%
inhibition at 10 µmol/kg ([1]; sc 10 µmol/kg (1.9 mg/kg) once daily, 96 h, group mean, read-out: Inhibition (%) Mean): 60%
inhibition at 10 µmol/kg ([1]; sc 10 µmol/kg (1.9 mg/kg) once daily, 120 h, group mean, read-out: Inhibition (%) Mean): 58%
inhibition at 100 µmol/kg ([1]; sc 100 µmol/kg (19 mg/kg) once daily, 24 h, group mean, read-out: Inhibition (%) Mean): 68%
inhibition at 100 µmol/kg ([1]; sc 100 µmol/kg (19 mg/kg) once daily, 24 h, individual animals, read-out: Inhibition (%)): 67%
inhibition at 100 µmol/kg ([1]; sc 100 µmol/kg (19 mg/kg) once daily, 48 h, group mean, read-out: Inhibition (%) Mean): 56%
inhibition at 100 µmol/kg ([1]; sc 100 µmol/kg (19 mg/kg) once daily, 48 h, individual animals, read-out: Inhibition (%)): 60%
inhibition at 100 µmol/kg ([1]; sc 100 µmol/kg (19 mg/kg) once daily, 72 h, group mean, read-out: Inhibition (%) Mean): 65%
inhibition at 100 µmol/kg ([1]; sc 100 µmol/kg (19 mg/kg) once daily, 72 h, individual animals, read-out: Inhibition (%)): 67%
inhibition at 100 µmol/kg ([1]; sc 100 µmol/kg (19 mg/kg) once daily, 96 h, group mean, read-out: Inhibition (%) Mean): 75%
inhibition at 100 µmol/kg ([1]; sc 100 µmol/kg (19 mg/kg) once daily, 96 h, individual animals, read-out: Inhibition (%)): 84%
inhibition at 100 µmol/kg ([1]; sc 100 µmol/kg (19 mg/kg) once daily, 120 h, group mean, read-out: Inhibition (%) Mean): 78%
SMILES: NNc1nnc(NN)c2ccccc12 [dihydralazine]
SSAO inhibition ([1]; animal experiments, low dose without appreciable blood pressure lowering effect): significant SSAO inhibition
Specific activity [1, 3]: 2.11 pmol/mg/h and 1.19 pmol/mg/h and 1.44 pmol/mg/h
Specific activity [1, 4]: 1.66 pmol/mg/h and 1.61 pmol/mg/h and 1.52 pmol/mg/h
Specific activity [1, 5]: 1.25 pmol/mg/h and 1.06 pmol/mg/h and 1.43 pmol/mg/h
Specific activity [1, 6]: 0.97 pmol/mg/h and 1.94 pmol/mg/h and 1.12 pmol/mg/h
Specific activity [1, 7]: 0.78 pmol/mg/h and 2.90 pmol/mg/h and 0.59 pmol/mg/h
Specific activity [1, 8]: 1.13 pmol/mg/h and 1.05 pmol/mg/h and 1.11 pmol/mg/h
Specific activity [1, 9]: 1.33 pmol/mg/h and 1.80 pmol/mg/h and 1.31 pmol/mg/h
Specific activity [1, 10]: 1.11 pmol/mg/h and 1.26 pmol/mg/h and 1.15 pmol/mg/h
Specific activity [1, 11]: 0.55 pmol/mg/h and 1.12 pmol/mg/h and 0.91 pmol/mg/h
Specific activity [1, 12]: 1.29 pmol/mg/h and 0.34 pmol/mg/h and 0.56 pmol/mg/h
OCT CPT (center point thickness) ([2]; 1. patient, 14. day, before treatment 272): 215
OCT CST (central subfield thickness) ([2]; 1. patient, 14. day, before treatment 298): 266
OCT CPT (center point thickness) ([2]; 1. patient, 28. day, before treatment 272): 219
OCT CST (central subfield thickness) ([2]; 1. patient, 28. day, before treatment 298): 273
OCT CPT (center point thickness) ([2]; 1. patient, 56. day, before treatment 272): 209
OCT CST (central subfield thickness) ([2]; 1. patient, 56. day, before treatment 298): 265
OCT CPT (center point thickness) ([2]; 2. patient, 14. day, before treatment 257): 319
OCT CST (central subfield thickness) ([2]; 2. patient, 14. day, before treatment 302): 323
OCT CPT (center point thickness) ([2]; 2. patient, 28. day, before treatment 257): 239
OCT CST (central subfield thickness) ([2]; 2. patient, 28. day, before treatment 302): 286
OCT CPT (center point thickness) ([2]; 2. patient, 56. day, before treatment 257): 201
OCT CST (central subfield thickness) ([2]; 2. patient, 56. day, before treatment 302): 252
macular edema ([2]; 2 treated type 2 diabetic patients, oral 14.5 mg dihydralazine sulphate twice daily for 56 days): significant decrease of the macular edema was observed in the fovea

— patent EP2326328B1, “USE OF DIHYDRALAZINE FOR THE TREATMENT OF DISEASES RELATED TO ELEVATED SEMICARBAZIDE SENSITIVE AMINE-OXIDASE (SSAO) ACTIVITY” (Semmelweis Egyetem, priority 2008, dated 2010)
